Test results taken from patent US11607378B2, “Cosmetic composition comprising amide-based compound” (Neopharm Co., Ltd., priority 2020, dated 2023).

Tests used:
p16^INK4A = experiment: Expression level of p16^INK4A by Western blot after blue light; assay type: cell-based; settings: human dermal fibroblasts, blue light 40 J/cm^2, sample 100 μM, 24 hours, Western blot (FIG. 1)
Procedure: (1) An expression level of p16^INK4A was determined through Western blot in Examples and Comparative Examples of the present invention.
Specifically, human dermal fibroblasts were cultured in a 12-well plate containing a Dulbecco's modified eagle medium (DMEM) medium supplemented with 10% fetal bovine serum (FBS) to attach 1.5×10^5 (1 mL/well) human dermal fibroblasts to the 12-well plate. The human dermal fibroblasts were cultured for 24 hours, and the medium was replaced with a 1% fetal bovine serum medium. Then, the human dermal fibroblasts were exposed to blue light of 40 J/cm^2, and then treated with each of the samples (100 μM) of Examples and Comparative Examples. Thereafter, the cells were additionally cultured at 37° C. for 24 hours. Then, the cells were recovered, and each of these samples was subjected to Western blot to analyze an expression level of p16^INK4A in the dermal fibroblasts. Each of samples of Examples 1 and 2 and Comparative Example 1 including the amide-based compound having a structure shown in the following Table 1 was used as the sample.
The control of FIG. 1 represents an experimental group in which the cells were not treated with the sample, and (-) represents a result of the experimental group exposed to blue light.

[1] = system: reactive oxygen species (ROS) in dermal fibroblasts; experiment: Effect of removing reactive oxygen species (ROS), DCF-DA fluorescence image; assay type: cell-based, human; settings: blue light 40 J/cm^2, sample 100 μM, 24 hours, DCF-DA (FIG. 2)
Procedure: An effect of removing the reactive oxygen species was determined for the samples of Examples and Comparative Examples of the present invention.
An image analysis for generation of reactive oxygen species (ROS) in the cells was carried out by seeding 1×10^5 (100 μL/well) dermal fibroblasts in a 12-well plate to which a cover slip was attached. The dermal fibroblasts were exposed to blue light of 40 J/cm^2, and then treated with each of the samples (100 μM) of Examples and Comparative Examples. Then, the cells were additionally cultured at 37° C. for 24 hours.
After 24 hours, 100 μM DCF-DA was put into each well, and the cells were cultured at 37° C. for 45 minutes. After the cells were washed with PBS, the stained cells were put on a microscope slide containing a mounting medium. A microscopic image was observed as a fluorescent microscopic image.

[2] = system: superoxide dismutase (SOD); experiment: Effect on antioxidant activity (Superoxide Dismutase Activity Assay kit) after blue light; assay type: cell-based, human; settings: dermal fibroblasts, blue light 40 J/cm^2, sample 100 μM, 48 hours (FIG. 3)
Procedure: Effects of the samples of Examples and Comparative Examples of the present invention on a change in antioxidant activity after irradiation with blue light were confirmed.
Specifically, 1.5×10^5 (1 mL/well) dermal fibroblasts were seeded in a 6-well plate, and cultured for 24 hours. The dermal fibroblasts were exposed to blue light of 40 J/cm^2, and then treated with each of the samples (100 μM) of Examples and Comparative Examples. After 48 hours, the cells were recovered. The cells were dissolved in a cell lysis buffer (pH 7.4) containing 0.1 M Tris/HCl, 0.5% Triton X-100, 5 mM β-ME, and 0.1 mg/ml PMSF, and a supernatant separated by centrifugation was then analyzed using a Superoxide Dismutase Activity Assay kit (ab65354). Then, the absorbance was measured at a wavelength of 450 nm in a microplate reader.

[3] = system: carbonylated protein in artificial skin (EpiDermFT); experiment: Effect on generation of carbonylated protein in artificial skin (DNPH assay, ICC staining); assay type: cell-based; settings: sample 0.3% 50 μL, blue light 40 J/cm^2, 48 hours, image J quantification (FIG. 4)
Procedure: An artificial skin (EpiDermFT™ from MatTek, Ashland, USA) was purchased, and then stabilized for 18 hours in an exclusive medium (EFT-400). 50 μL of each of the samples of Examples and Comparative Examples was applied to the artificial skin at a concentration of 0.3%, and then cultured for an hour. The artificial skin was exposed to blue light of 40 J/cm^2. After 48 hours, the artificial skin tissue was fixed in 10% formaldehyde, and embedded into paraffin. Thereafter, the tissue was microtomed into sections with a size of […]. Then, the microtomed tissue was used to confirm an effect on a change in activity of the carbonylated protein.
The tissue was stained by a DNPH assay using an immunocytochemical (ICC) staining method, and then observed in a fluorescent microscopic image. Thereafter, the microscopic image was digitized using an image J program.

| Structure (SMILES) | expression level of p16^INK4A (p16^INK4A) [%] | inhibiting the generation of reactive oxygen species and removing the generated reactive oxygen species [1] | SOD activity (which had been reduced by 32.64% by blue light) [2] [%] | carbonylated protein (which had increased by 72.04% by blue light) [3] [%] |
| --- | --- | --- | --- | --- |
| CCCCC(CC)C(=O)NC(CO)CO (centres unmarked) [Comparative Example 1, N-(1,3-dihydroxypropan-2-yl)-2-ethylhexanamide, reference compound] | 120 | did not exhibit a significant effect | – | – |
| CCCCC(C)C(=O)NCCO (centres unmarked) [Example 2, N-(2-hydroxyethyl)-2-methyl-hexanamide] | 53.9 | – | 92.3 | 16.67 |
